Source: patent US8389544B2, “Isoquinolone compounds as subtype-selective agonists for melatonin receptors MT1 and MT2” (The Hong Kong University of Science and Technology, priority 2007, dated 2013)

Experiments:
MT2 receptor [1] = molecular target: T1, MT2 receptor (Homo sapiens, UniProt P49286); experiment: cAMP assay, MT2; format: cell-based; set-up: expressed in transfected cells; host or cells: COS-7 (monkey kidney fibroblast); conditions: inhibition of forskolin-stimulated cAMP production; MT2-expressing cells
T1 sequence (P49286 1-362): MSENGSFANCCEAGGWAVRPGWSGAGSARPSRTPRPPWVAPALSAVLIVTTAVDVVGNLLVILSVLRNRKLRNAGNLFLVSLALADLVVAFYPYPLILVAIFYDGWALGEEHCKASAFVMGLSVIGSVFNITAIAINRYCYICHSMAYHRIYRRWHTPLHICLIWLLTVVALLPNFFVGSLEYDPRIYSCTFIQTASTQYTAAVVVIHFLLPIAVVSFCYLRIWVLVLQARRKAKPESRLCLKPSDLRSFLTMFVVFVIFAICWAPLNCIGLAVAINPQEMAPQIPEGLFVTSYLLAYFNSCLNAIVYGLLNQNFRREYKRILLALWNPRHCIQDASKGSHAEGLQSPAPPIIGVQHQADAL

MT2 receptor [2] = molecular target: T1, MT2 receptor; experiment: CRE-Luc (luciferase reporter gene) assay, MT2; format: cell-based; set-up: expressed in transfected cells; conditions: HEK 293-pCREluc cells with MT2; inhibition of forskolin response
Procedure: (§1) The luciferase reporter gene assay offers another way to measure melatonin receptor activation. Cells expressing cAMP-responsive element-driven luciferase reporter gene (293-pCREluc) and either the MT1 or MT2 receptor are treated with forskolin (a substance which stimulates cAMP production as well as the subsequent luciferase gene expression) alone or with a novel isoquinolone compound. As melatonin receptor activation inhibits cAMP production, any suppression in the expression of luciferase leads to a decrease in enzymatic activities and a reduction in the amount of luminescence signal generated.
(§2) The luciferase assay, a reporter gene assay, was performed to confirm the ability of the invention to activate the melatonin receptors. Prior to the assay, HEK (human embryonic kidney) 293 cells are stably transfected with cAMP-responsive element-driven luciferase reporter gene (293-pCREluc) and cDNAs encoding MT1 or MT2 receptors. The cells are then exposed to the novel isoquinolone compounds, after which the substrate luciferin is added and the resulting luminescence measured.
(§3) Prior to the assay human embryonic kidney (HEK) 293 cells (CRL-1573, ATCC) is maintained at 37° C. in minimum essential medium (MEM) supplemented with 10% fetal bovine serum (FBS), 100 units/ml penicillin and 100 μg/ml streptomycin in a humidified atmosphere containing 5% CO2. Human embryonic kidney 293 cells stably transfected with cAMP-responsive element-driven luciferase reporter gene (293-pCREluc) are established and maintained in growth medium supplemented with 300 μg/ml G418 sulphate.
(§4) For luciferase assays, HEK-293 cells stably expressing pCRE-luciferase are seeded at a density of 15,000 cells/well into 96 well plates. Transfection is carried out using Lipofectamine Plus® reagent at 0.2 μl of both Plus and lipofectamine reagents with 50 ng cDNAs encoding MT1 or MT2 receptors per well. After a 3 hour transfection period at 37° C., 50 μl of DMEM with 20% fetal calf serum (FCS) is added into the wells and the plate is incubated at 37° C. for 48 h prior to 24 hour serum starvation. […]
(§5) Cells are harvested by replacing medium in the well by 50 μl luciferase lysis buffer. The Berthold microplate luminometer is maintained at 25° C. throughout the assay. Injector M connected to an empty tube and P connected to the drug tube are set to inject 25 μl of luciferin into appropriate wells. A 1.6 second delay time followed by a 1 second measuring time period is assigned to injector M, whereas injector P is measured for 10 seconds after luciferase substrate is introduced into the well. Results are expressed as relative luminescent units (RLU). Where indicated, agonist-induced activity is expressed as a percentage of the RLU obtained with forskolin.

MT1 receptor [3] = molecular target: T2, MT1 receptor (Homo sapiens, UniProt P48039); experiment: cAMP assay, MT1; format: cell-based; set-up: expressed in transfected cells; host or cells: COS-7 (monkey kidney fibroblast); conditions: inhibition of forskolin-stimulated cAMP production; MT1-expressing cells
T2 sequence (P48039 whole entry): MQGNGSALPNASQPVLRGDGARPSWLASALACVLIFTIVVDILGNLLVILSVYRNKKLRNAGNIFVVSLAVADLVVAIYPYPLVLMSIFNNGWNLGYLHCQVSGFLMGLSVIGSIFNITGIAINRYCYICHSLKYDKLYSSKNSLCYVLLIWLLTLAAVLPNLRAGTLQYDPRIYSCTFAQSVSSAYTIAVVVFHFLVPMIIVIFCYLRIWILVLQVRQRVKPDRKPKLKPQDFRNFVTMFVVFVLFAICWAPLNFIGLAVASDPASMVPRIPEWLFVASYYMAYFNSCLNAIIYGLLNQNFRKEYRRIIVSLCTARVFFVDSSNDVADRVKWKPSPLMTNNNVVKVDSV

MT1 receptor [4] = molecular target: T2, MT1 receptor; experiment: CRE-Luc (luciferase reporter gene) assay, MT1; format: cell-based; set-up: expressed in transfected cells; conditions: HEK 293-pCREluc cells with MT1; inhibition of forskolin response
Procedure: as §1, §2, §3, §4, §5

MT2 receptor [5] = molecular target: T1, MT2 receptor; experiment: Competitive [3H]melatonin binding assay, MT2; set-up: expressed in transfected cells; conditions: displacement of [3H]melatonin
Procedure: (§6) Competitive ligand binding assays were performed to examine the receptor binding characteristics of the novel isoquinolone compounds. The assay measures the ability of the novel isoquinolone compounds to bind and displace the radiolabelled endogenous ligand, [^3H]melatonin. Increasing concentrations of the novel compounds are added to displace the [^3H]melatonin-bound to MT1 or MT2 receptor-expressing cells.
(§7) 4. Competitive Binding Assay
(§8) The ability of compounds to bind to MT1 and/or MT2 receptors is determined using radioligand binding assays. […] 48 hours following transfection, cells are harvested in binding buffer (50 mM Tris-HCl, 2 mM MgCl2, 1 mM EDTA, pH 7.4). 100,000 cells are incubated with 1 nM [^3H] melatonin (specific activity: 83 Ci/mmol; GE Healthcare) and appropriate concentrations (0.1 nM to 1 μM) of unlabelled ligands in a total volume of 100 μl in 96-well plates (PerkinElmer Life And Analytical Sciences, Inc., Boston, Mass.) for 2 hours at room temperature. Reactions are terminated by rapid filtration through a 96-well cell harvester onto 96-well GF/C filter mats. Filters are washed with 500 μl of ice-cold binding buffer, dried and sealed in a polyethylene bag with 3.5 ml of scintillation fluid and counted for tritium in a Microbeta Jet scintillation counter. […] Data are analyzed by nonlinear least-squares regression using GraphPad Prism 3.02.

MT1/293 = experiment: MTT cytotoxicity assay, MT1/293 cells; format: cell-based; conditions: percentage of untreated control cells
Procedure: (§9) This assay evaluates the cytotoxic effects of the novel isoquinolone compounds based on the cellular viability under chronic treatments. Viable cells but not dead cells can turn the substrate into a colored product, which yields higher absorbance. […] A low percentage indicates low cytoviability (or high cytotoxicity).
(§10) 5. Cytotoxicity Test Using MTT Assay
(§11) Cells were seeded into clear 96-well plate at an appropriate density in 100 μl growth medium and were allowed to grow overnight. The novel isoquinolone compounds were diluted to desired concentrations using fresh growth medium, and these dilutions were used to replace the growth media in each well. After incubating for 24-96 h, 10 μl of the MTT labeling reagent (Roche) was added to each well and the cells were incubated in a CO2 incubator for 4 h. 100 μl solubilization buffer was then added into each well and incubated overnight for complete solubilization of the purple formazan crystals. […] Each condition was performed in triplicate in every experiment and the results were expressed as % of blank control±SD.

Parental 293 = experiment: MTT cytotoxicity assay, parental 293 cells; format: cell-based; conditions: percentage of untreated control cells
Procedure: as §9, §10, §11

MT1 receptor [6] = molecular target: T2, MT1 receptor; experiment: Competitive [3H]melatonin binding assay, MT1; set-up: expressed in transfected cells
Procedure: as §6, §7, §8

MT2/293 = experiment: MTT cytotoxicity assay, MT2/293 cells; format: cell-based; conditions: percentage of untreated control cells
Procedure: as §9, §10, §11

With `COc1ccc2[nH]c(I)c(CCNC(C)=O)c2c1` [Compound 2-IMT, 2-iodomelatonin, reference compound] the “cAMP Assay MT2 % Inh” value (MT2 receptor [1]) was 51.9 ± 5.6%, the “CRE-Luc Assay MT2 % Inh ± SEM of 1 μM Fsk” value (MT2 receptor [2]) was 61.9 ± 5.0% and the “cAMP Assay MT1 % Inh” value (MT1 receptor [3]) was 48.5 ± 17.8%. The “CRE-Luc Assay MT1 % Inh ± SEM of 1 μM Fsk” value (MT1 receptor [4]) was 73.0 ± 2.2%, the “Binding Assay MT2 % Inh” value (MT2 receptor [5]) was 85.1% and the “MTT Assay MT1/293 % Viability ± SEM” value (MT1/293) was 113.3 ± 7.0%. For the same compound, the “MTT Assay Parental 293 % Viability ± SEM” value (Parental 293) was 105.9 ± 4.3%, the “displacement of bound [3H]melatonin” value (MT1 receptor [6]; b129, MT1 or MT2 receptor-expressing cells, both subtypes) was 85-95% and the “Binding Assay MT1 % Inh” value (MT1 receptor [6]; displacement of [3H]melatonin) was 94.9%. The “MTT Assay MT2/293 % Viability ± SEM” value (MT2/293) was 119.5 ± 8.3%.
